In patent US20230103142A1, “SMALL MOLECULE REGULATORS OF NOTCH1 AND USES THEREOF” (THE PENN STATE RESEARCH FOUNDATION, priority 2020, published 2023):
Like-named read-outs stand apart in the source and are kept apart here.

Experiments:
[1] = test system: Notch1/HCT116 (C4) xenografts; test: xenograft tumor growth study; details: 5 mg/kg intraperitoneally thrice a week, 4 weeks
Procedure: Xenograft studies: Six- to eight-week-old BALB/c athymic nude mice (nu/nu) (Jackson Laboratory: Bar Harbor, Me., USA) were subcutaneously injected with pCMV/HCT116 and C4 (1×10^6 cells). The monitoring and measurements were performed.

[2] = test system: NICD and HES1 in HCT116 cells; details: HCT116, IC50 concentration
Procedure: (§1) Protein extraction and western blotting: Mammalian Protein Extraction Reagent (Thermo Scientific, Rockford, Ill., USA) was used to extract total protein from pCMV/HCT116, C4, and C5 cells as well as bladder cancer cells were prepared with the according to the manufacturer's instructions. Western blotting was performed using specific antibodies against Notch1 (Cat: 3447S), Bcl-2 (Cat: 2872S), E-cadherin (Cat: 3195S), N-cadherin (Cat: 13116S), Snail (Cat: 3879S), β-catenin (Cat: 8480S), NF-κB (p65), Bax (Cat: 5023S), cleaved PARP (Cat: 9541L) (Cell Signaling Technology; Danvers, Mass., USA), and β-actin (Santa Cruz Biotechnologies, Dallas, Tex., USA), HES1 (Genescript; Lot QC1851, Piscataway, N.J., USA). Actin presented in the images represent the loading control for one or more markers from same cell lysates. Chemiluminescence was used to detect the positive bands on the membrane.

[3] = test system: NICD and HES1 in SW620 cells; details: SW620, IC50 concentration
Procedure: as §1

Notch1/HCT116 clone C4 = test: colony forming assay
Procedure: (§3) Six biological replicates used for MTT assays and it was repeated twice for each experiment. […] The anchorage-independent growth assay was performed and repeated in triplicate.

SW-620 cells = details: read-out: IC50 cell viability
Procedure: as §3

HCT116 cells = details: read-out: IC50 cell viability
Procedure: as §3

ubiquitin in ALDH+ cells = test: ubiquitin expression; assay type: cell-based
Source text: Commercially available positive and negative controls were used for these experiments.

[4] = test system: ALDH+ xenotransplanted tumors; test: ALDH+ xenotransplant tumor burden; details: ALDH+ xenotransplanted mice
ALDH+ (BCSC) cells = test system: ALDH+ (BCSC) cells
Source text: (§2) Studies have shown that Notch1 signaling is mainstay of breast cancer stem cell (BCSC) growth.

ALDH− (BC) cells = test system: ALDH− (BC) cells
Source text: as §2

MDA-MB-231 TNBC cells = test: cell viability assay; assay type: cell-based; details: for IC50: read-out: IC50 cell growth
Procedure: Synergistic effects of combinations were calculated via isobologram analysis.

[5] = read-out: IC 50 cell growth, 24 h
[6] = read-out: IC 50 cell growth, 48 h

SMILES: CC1=C(CO)C(=O)O[C@@H]([C@@H](C)[C@H]2CC[C@H]3[C@@H]4C[C@H]5O[C@]56[C@@H](OC(=O)c5ccccn5)C=CC(=O)[C@]6(C)[C@H]4CC[C@]23C)C1 [ASR490, Pyridine-2-carboxylic acid {17-[1-(5-hydroxymethyl-4-methyl-6-oxo-3,6-dihydro-2H-pyran-2-yl)-ethyl]-10,13-dimethyl-1-oxo, 4,6,7,8,9,10,11,12,13,14,15,16,17-tetradecahydro-20-oxacyclopropa[5,6]cyclopenta[a]phenanthren-4-yl}ester]
- tumor growth [1]: significant tumor growth inhibition
- expression of NICD and HES1 protein [2]: Significant downregulation
- expression of NICD and HES1 protein [3]: Significant downregulation
- reduction of colony forming ability (Notch1/HCT116 clone C4): 38%
- IC50 (SW-620 cells; SW-620, 24-h): 1200 nM
- IC50 (SW-620 cells; SW-620, 48-h): 850 nM
- IC50 (HCT116 cells; HCT 116, 24-h): 750 nM
- IC50 (HCT116 cells; HCT 116, 48-h): 600 nM
- ubiquitin expression (ubiquitin in ALDH+ cells): time dependent increased ubiquitin expression
- tumor burden [4]: significantly reduced tumor burden
- IC50 (ALDH+ (BCSC) cells; [5]): 770 nM
- IC50 (ALDH+ (BCSC) cells; [6]): 443 nM
- IC50 (ALDH− (BC) cells; [5]): 1600 nM
- IC50 (ALDH− (BC) cells; [6]): 836 nM
- IC50 (MDA-MB-231 TNBC cells; MDA-MB-231, 24 h): 760 nM
- IC50 (MDA-MB-231 TNBC cells; MDA-MB-231, 48 h): 444 nM
- inhibition of proliferation by combination (MDA-MB-231 TNBC cells; ⅕th of IC50 of ASR490 (152 nM) in combination with 1/20th of IC50 of DOX (46.4 nM)): 30%
- growth inhibition alone (MDA-MB-231 TNBC cells; ⅕th of IC50 of ASR490 alone): did not inhibit the growth
